Measurements published in patent publication US8754242B2, “Herbicides” (Syngenta Crop Protection LLC, priority 2007, dated 2014).

Experiments:
Type in all cases: in vivo
Lolium perenne (LOLPE) [1] = experiment: Test Example 1 post-emergence herbicidal activity; details: rate 125 g/ha, evaluated 15 days later; for pest or weed control at 125 g/ha: 360 h, read-out: Post-emergence activity LOLPE (100=total damage to plant; 0=no damage to plant)
Experimental: (§1) Monocotyledonous and dicotyledonous test plants were sown in standard soil in pots. After cultivation for one day (pre-emergence) or after 10 days cultivation (post-emergence) under controlled conditions in a glasshouse, the plants were sprayed with an aqueous spray solution derived from the formulation of the technical active ingredient in 0.6 ml acetone and 45 ml formulation solution containing 10.6% Emulsogen EL (Registry number 61791-12-6), 42.2% N-methylpyrrolidone, 42.2% dipropylene glycol monomethyl ether (Registry number 34590-94-8) and 0.2% X-77 (Registry number 11097-66-8). The test plants were then grown in a greenhouse under optimum conditions until, 15 days later for post-emergence and 20 days for pre-emergence, the test was evaluated (100=total damage to plant; 0=no damage to plant).
(§2) Alopecurus myosuroides (ALOMY), Avena fatua (AVEFA), Lolium perenne (LOLPE), Setaria faberi (SETFA), Digitaria sanguinalis (DIGSA), Echinochloa crus-galli (ECHCG)

[2] = system: Digitaria sanguinalis (DIGSA); experiment: Test Example 1 post-emergence herbicidal activity; details: rate 125 g/ha, evaluated 15 days later; for pest or weed control at 125 g/ha: 360 h, read-out: Post-emergence activity DIGSA (100=total damage to plant; 0=no damage to plant)
Experimental: as §1, §2

[3] = system: Echinochloa crus-galli (ECHCG); experiment: Test Example 1 post-emergence herbicidal activity; details: rate 125 g/ha, evaluated 15 days later; for pest or weed control at 125 g/ha: 360 h, read-out: Post-emergence activity ECHCG (100=total damage to plant; 0=no damage to plant)
Experimental: as §1, §2

Avena fatua (AVEFA) [4] = experiment: Test Example 1 post-emergence herbicidal activity; details: rate 125 g/ha, evaluated 15 days later; for pest or weed control at 125 g/ha: 360 h, read-out: Post-emergence activity AVEFA (100=total damage to plant; 0=no damage to plant)
Experimental: as §1, §2

[5] = system: Alopecurus myosuroides (ALOMY); experiment: Test Example 1 post-emergence herbicidal activity; details: rate 125 g/ha, evaluated 15 days later; for pest or weed control at 125 g/ha: 360 h, read-out: Post-emergence activity ALOMY (100=total damage to plant; 0=no damage to plant)
Experimental: as §1, §2

Setaria faberi (SETFA) [6] = experiment: Test Example 1 post-emergence herbicidal activity; details: rate 125 g/ha, evaluated 15 days later; for pest or weed control at 125 g/ha: 360 h, read-out: Post-emergence activity SETFA (100=total damage to plant; 0=no damage to plant)
Experimental: as §1, §2

Lolium perenne (LOLPE) [7] = experiment: Test Example 1 pre-emergence herbicidal activity; details: rate 250 g/ha, evaluated 20 days later; for pest or weed control at 250 g/ha: Lolium perenne, 480 h, read-out: Pre-emergence activity LOLPE (100=total damage to plant; 0=no damage to plant)
Experimental: as §1, §2

[8] = system: Digitaria sanguinalis (DIGSA); experiment: Test Example 1 pre-emergence herbicidal activity; details: rate 250 g/ha, evaluated 20 days later; for pest or weed control at 250 g/ha: Digitaria sanguinalis, 480 h, read-out: Pre-emergence activity DIGSA (100=total damage to plant; 0=no damage to plant)
Experimental: as §1, §2

[9] = system: Echinochloa crus-galli (ECHCG); experiment: Test Example 1 pre-emergence herbicidal activity; details: rate 250 g/ha, evaluated 20 days later; for pest or weed control at 250 g/ha: Echinochloa crus-galli, 480 h, read-out: Pre-emergence activity ECHCG (100=total damage to plant; 0=no damage to plant)
Experimental: as §1, §2

Avena fatua (AVEFA) [10] = experiment: Test Example 1 pre-emergence herbicidal activity; details: rate 250 g/ha, evaluated 20 days later; for pest or weed control at 250 g/ha: Avena fatua, 480 h, read-out: Pre-emergence activity AVEFA (100=total damage to plant; 0=no damage to plant)
Experimental: as §1, §2

[11] = system: Alopecurus myosuroides (ALOMY); experiment: Test Example 1 pre-emergence herbicidal activity; details: rate 250 g/ha, evaluated 20 days later; for pest or weed control at 250 g/ha: Alopecurus myosuroides, 480 h, read-out: Pre-emergence activity ALOMY (100=total damage to plant; 0=no damage to plant)
Experimental: as §1, §2

Setaria faberi (SETFA) [12] = experiment: Test Example 1 pre-emergence herbicidal activity; details: rate 250 g/ha, evaluated 20 days later; for pest or weed control at 250 g/ha: Setaria faberi, 480 h, read-out: Pre-emergence activity SETFA (100=total damage to plant; 0=no damage to plant)
Experimental: as §1, §2

SMILES	pest or weed control at 125 g/ha (Lolium perenne (LOLPE) [1])	pest or weed control at 125 g/ha [2]	pest or weed control at 125 g/ha [3]	pest or weed control at 125 g/ha (Avena fatua (AVEFA) [4])	pest or weed control at 125 g/ha [5]	pest or weed control at 125 g/ha (Setaria faberi (SETFA) [6])	pest or weed control at 250 g/ha (Lolium perenne (LOLPE) [7])	pest or weed control at 250 g/ha [8]	pest or weed control at 250 g/ha [9]	pest or weed control at 250 g/ha (Avena fatua (AVEFA) [10])	pest or weed control at 250 g/ha [11]	pest or weed control at 250 g/ha (Setaria faberi (SETFA) [12])	also measured
CCc1cc(C)cc(CC)c1C1=C(OC(=O)CCCCCCC(=O)OC)[C@H]2[C@@H](C1=O)[C@@H]1CC[C@H]2O1 [Example P16]	100%	100%	100%	90%	100%	100%	90%	100%	100%	90%	100%	100%	
COC[C@]12CC[C@H](O1)[C@@H]1C(=O)C(c3c(C)cc(C)cc3C)=C(OC(=O)C3CC3)[C@@H]12 (single isomer, unassigned) [Example P30]	70%	90%	100%		80%	80%	90%	80%	90%	80%	80%	80%	
C#CCOC(=O)OC1=C(c2c(CC)cc(C)cc2CC)C(=O)[C@@H]2[C@H]1[C@H]1CC[C@@H]2O1 (racemic) [Example P25]	100%	80%	100%	90%	100%	80%	100%	100%	100%	100%	100%	100%	
CCC1=NOC2C1[C@@H]1O[C@H]2[C@H]2C(O)=C(c3c(CC)cc(C)cc3CC)C(=O)[C@H]21 (stereo partly drawn) [Example T15]	40%	80%	80%	40%	50%	50%	40%	30%	80%	20%	40%	60%	
C#CC1=C[C@@H]2O[C@H]1[C@H]1C(O)=C(c3c(CC)cc(C)cc3CC)C(=O)[C@H]12 [Example T12]	10%	70%	70%	50%	70%	70%	40%	40%	0%	10%	10%	40%	
Cc1cc(C)c(C2=C(O)[C@H]3[C@@H](C2=O)[C@@H]2CC[C@@]3(C)O2)c(C)c1 [Example T48]													Post-emergence activity LOLPE (100=total damage to plant; 0=no damage to plant) (Lolium perenne (LOLPE) [1]): 70; Post-emergence activity DIGSA (100=total damage to plant; 0=no damage to plant) [2]: 100; Post-emergence activity ECHCG (100=total damage to plant; 0=no damage to plant) [3]: 100; Post-emergence activity AVEFA (100=total damage to plant; 0=no damage to plant) (Avena fatua (AVEFA) [4]): 70; Post-emergence activity ALOMY (100=total damage to plant; 0=no damage to plant) [5]: 80; Post-emergence activity SETFA (100=total damage to plant; 0=no damage to plant) (Setaria faberi (SETFA) [6]): 90; Pre-emergence activity LOLPE (100=total damage to plant; 0=no damage to plant) (Lolium perenne (LOLPE) [7]): 100; Pre-emergence activity DIGSA (100=total damage to plant; 0=no damage to plant) [8]: 100; Pre-emergence activity ECHCG (100=total damage to plant; 0=no damage to plant) [9]: 100; Pre-emergence activity AVEFA (100=total damage to plant; 0=no damage to plant) (Avena fatua (AVEFA) [10]): 80; Pre-emergence activity ALOMY (100=total damage to plant; 0=no damage to plant) [11]: 100; Pre-emergence activity SETFA (100=total damage to plant; 0=no damage to plant) (Setaria faberi (SETFA) [12]): 100
Cc1cc(C)c(C2=C(O)C3C(C2=O)[C@@H]2CC(CO)[C@@]3(C)O2)c(C)c1 (stereo partly drawn) [Example T62]	20%	70%	80%	0%	60%	70%	60%	80%	80%	70%	70%	80%	
C=C[C@@H]1C[C@@H]2O[C@H]1[C@H]1C(O)=C(c3c(C)cc(C)cc3C)C(=O)[C@H]12 (racemic) [Example T99]	10%	60%	100%	30%	80%	70%	100%	80%	100%	60%	80%	80%	
CSC[C@]12CC[C@H](O1)[C@@H]1C(=O)C(c3c(C)cc(C)cc3C)=C(O)[C@@H]12 [Example T53]							10%	10%	0%	20%	10%	10%	
CCc1cc(C)cc(CC)c1C1=C(O)[C@@H]2[C@@H]3O[C@@H](C[C@H]3c3cccc(Cl)c3)[C@@H]2C1=O [Example T148]							70%	70%	80%	50%	60%	60%	
CCc1cc(C)cc(CC)c1C1=C(O)[C@@H]2[C@@H]3O[C@@H](C[C@H]3c3cccc(F)c3C#N)[C@@H]2C1=O [Example T157]	40%	60%	100%	60%	60%	60%	70%	0%	50%		30%	0%	
CCc1cc(C)cc(CC)c1C1=C(OC(=O)OCC(C)C)[C@H]2[C@@H](C1=O)[C@@H]1CC[C@H]2O1 (racemic) [Example P24]			100%		100%	100%	100%	100%	100%	90%	90%	100%	
Cc1cc(C)c(C2=C(OC(=O)C(C)(C)C)[C@H]3[C@@H](C2=O)[C@@H]2CC[C@H]3O2)c(C)c1 (racemic) [Example P33, (1RS,2SR,6RS,7SR)-5-oxo-4-(2,4,6-trimethylphenyl)-10-oxatricyclo[5.2.1.0^2,6]dec-3-en-3-yl 2,2-dimethylpropionate]	80%	70%	90%	70%	80%	70%	100%	80%		70%	90%	80%	
